Measured values published in PubChem BioAssay AID540252 (Sanford-Burnham Center for Chemical Genomics, 2011).
The source made the active and inactive calls. The rule behind the calls is not given here.

biological target: glucose-6-phosphate dehydrogenase-6-phosphogluconolactonase (Plasmodium falciparum 3D7); test: inhibition of P. falciparum G6PD activity – biochemical, end-point NADPH detection, orthogonal assay, dose response (AID 540252); conditions: purified PfG6PD enzyme, NADPH direct detection

SMILES	IC50
O=c1[nH]c2ccccc2n2c(-c3ccccc3)nnc12	> 80 µM (inactive)
CN1CCN(C(=S)c2ccc([N+](=O)[O-])cc2)CC1	65.5 µM
O=C1NC(=O)N(c2ccccc2)C(=O)/C1=C/c1ccc([N+](=O)[O-])s1	> 80 µM (inactive)
O=c1c2cc(F)ccc2sn1-c1ccc(F)cc1	25.5 µM
Cc1ccc(/C=C/C(=O)NCC2COc3ccccc3O2)o1 (stereo not drawn)	> 80 µM (inactive)
CCc1ccc(S(=O)(=O)Nc2cc(SCC(=O)O)c(O)c3ccccc23)cc1	> 80 µM (inactive)
COC(=O)c1ccccc1NC1=C/C(=N\S(=O)(=O)c2cccs2)c2ccccc2C1=O	> 80 µM (inactive)
CCOc1ccc(CNc2ccc(N3CCCC3)cc2)cc1	> 80 µM (inactive)
O=C1OC(c2ccc3ccccc3c2O)(c2ccc3ccccc3c2O)c2ccccc21	> 80 µM (inactive)
CCN(CC)C(=S)SSC(=S)N(CC)CC	> 80 µM (inactive)
Cc1ccc(NNS(=O)(=O)c2ccc(C)cc2)cc1	> 80 µM (inactive)
Cc1cc(C)c2c(=O)n(CC(=O)NC3CCCC3)sc2n1	> 80 µM (inactive)
CCCCCCCCSC1=CC(=O)C(OC)=C(OC)C1=O	> 80 µM (inactive)
CCN1CCCC1CNC(=O)c1ccc2c(c1)NC(=O)/C(=C\c1ccc(C)cc1)S2 (stereo not drawn)	> 80 µM (inactive)
O=C1C=CC(=O)N1c1ccc2c(c1)C(NC(=O)C(F)(F)F)c1ccccc1-2 (stereo not drawn)	20 µM
Cc1ccc(C(=O)Nc2nnc(S(=O)(=O)N3CCC(C)CC3)s2)cc1	> 80 µM (inactive)
c1ccc(-c2nc(N3CCOCC3)s[n+]2-c2ccccc2)cc1	> 80 µM (inactive)
Cc1nc2c(o1)C(=O)c1ccccc1C2=Nc1ccccc1	> 80 µM (inactive)
O=c1c2ccccc2sn1-c1ccc(Cl)cc1Cl	16.9 µM
COCCNC(=S)Nc1ccc(N2CCOCC2)c(S(=O)(=O)Nc2ccc(Cl)cc2)c1	> 80 µM (inactive)
Cc1ccc(S(=O)(=O)N(C)C)cc1NC(=O)CSc1nc2ncc(Cl)cc2[nH]1	> 80 µM (inactive)
O=S(c1ccccc1O)S(=O)c1ccccc1O (stereo not drawn)	> 80 µM (inactive)
Cc1cc(=O)[nH]c(N/N=C/c2c(C)nn(-c3ccccc3)c2Cl)n1	19.9 µM
CCOC(=O)c1cnc2ccc(C)cc2c1Sc1ccccc1C(=O)OC	> 80 µM (inactive)
COc1cc(N=Cc2c(CO)cnc(C)c2O)cc(OC)c1OC	> 80 µM (inactive)
Cc1ccc(/C=C/C(=O)Nc2ccc([N+](=O)[O-])c(NC(=O)/C=C/c3ccc(C)o3)c2)o1	33.6 µM

SMILES	IC50
O=C1C=CC(=O)N1c1ccc(-c2nc3ccccc3o2)cc1	> 80 µM (inactive)
CN1CCN(C(=S)C(=O)Nc2ccc(Br)cc2)CC1	67.9 µM
Nc1c(C(=O)Nc2ccc(F)cc2)sc(=S)n1-c1ccccc1F	> 80 µM (inactive)
N#CC(C#N)=C1C=CC=CN1/C(=C\c1ccccc1Cl)C(=O)c1ccccc1	> 80 µM (inactive)
Oc1ccc(NCc2ccccc2OCc2ccccc2)cc1	> 80 µM (inactive)
Cc1ccc(/C=C/C(=O)NCc2ccc(S(N)(=O)=O)cc2)o1	> 80 µM (inactive)
COc1cc(CN2CCN(CCCc3ccccc3)C(CCO)C2)cc(OC)c1O (stereo not drawn)	> 80 µM (inactive)
COc1ccc(NC(C)C(=O)N/N=C/c2cc(Br)ccc2OC)cc1 (stereo not drawn)	> 80 µM (inactive)
O=C1C(Cl)=C(NCCc2ccccc2)C(=O)c2ccccc21	> 80 µM (inactive)
C#CCCc1cscc1/C=[N+](\[O-])c1ccc(C(=O)OCC)cc1	> 80 µM (inactive)
CCc1c(C(=O)Nc2ccccc2)c(C)[nH]c(=S)c1C#N	> 80 µM (inactive)
Cc1ccc(NC(=O)c2ccc(Cl)c(N3C(=O)C=CC3=O)c2)cc1	33.4 µM
Cc1cccc(-n2c(=S)[nH]c3sc4c(c3c2=O)CCc2ccccc2-4)c1	> 80 µM (inactive)
COc1cc(-c2cc(=O)c3c(O)c(OC)c(OC)c(O)c3o2)ccc1O	> 80 µM (inactive)
Cc1c(Cl)c([N+](=O)[O-])nn1Cc1ccc(C(=O)N/N=C\c2cccc(Br)c2)o1	> 80 µM (inactive)
Cc1cccc(C(=O)Nc2nnc(S(=O)(=O)N3CCCCCC3)s2)c1	> 80 µM (inactive)
CC(C)(C)c1ccc(O)c(O)c1	54.8 µM
COc1ccc(C(=O)Nc2cc(Cl)ccc2C(=O)O)cc1	> 80 µM (inactive)
COc1cc(NCc2ccccc2)c2ncn(C(C)C)c2c1	> 80 µM (inactive)
Cc1cc(C)c2c(=O)n(CC(=O)Nc3ccc(Cl)cc3)sc2n1	> 80 µM (inactive)
O=C(CSc1nc2cc(Cl)ccc2s1)c1ccco1	> 80 µM (inactive)
CCN(CC)c1ccc(NC(=O)c2ccccc2Br)cc1S(=O)(=O)Nc1ccccc1OC	> 80 µM (inactive)
CC(C)(C)NC(=O)COc1ccc(CNc2ccc3[nH]c(=O)[nH]c3c2)cc1	> 80 µM (inactive)
Clc1ccc(N=c2ssnc2Cl)nc1	> 80 µM (inactive)
Nn1c(CSc2nc3ccccc3o2)nnc1CSc1nc2ccccc2o1	> 80 µM (inactive)
CCC(c1ccc(O)c(O)c1)C(CC)c1ccc(O)c(O)c1 (stereo not drawn)	> 80 µM (inactive)

SMILES	IC50
CN(C)C=Nc1ccc2nc3c(cc2c1)[nH]c1ccccc13	> 80 µM (inactive)
CN(C)c1ccc(C=c2c3cc(O)ccc3n3c2cc(-c2ccccc2)[n+]3C)cc1	> 80 µM (inactive)
Cc1cc(SCC(=O)N/N=C/c2ccco2)nc2ccccc12	> 80 µM (inactive)
CCOc1ccc(NC(=O)Cn2sc3nc(C)cc(C)c3c2=O)cc1	> 80 µM (inactive)
Cc1cc(C)c(NC(=S)NCC2CCN(C(C)c3ccccc3)C2)c(C)c1 (stereo not drawn)	64.1 µM
CCNc1cc2c(cc1O)CCC1C2CCC2(C)C(O)CCC12 (stereo not drawn)	> 80 µM (inactive)
CCOC(=O)c1ccc(-n2c(N)c(C(=O)NCC3CCCO3)sc2=S)cc1 (stereo not drawn)	> 80 µM (inactive)
O=C(Cn1sc2ccccc2c1=O)Nc1ccc(F)cc1	21.9 µM
CC1(C)CC2(CC(c3ccccc3F)c3ccc(O)c(O)c3O2)NC(=S)N1 (stereo not drawn)	32.1 µM
O=C1Nc2cc(C(=O)NCCCN3CCCC3)ccc2S/C1=C\c1ccccc1	> 80 µM (inactive)
CC(SCC(=O)Nc1ccccc1)c1nc2ccccc2c(=O)[nH]1 (stereo not drawn)	> 80 µM (inactive)
C=CCOc1c(Cl)cc(CNc2ccc3[nH]c(=O)[nH]c3c2)cc1OC	> 80 µM (inactive)
Cc1ccc(/C=C/C(=O)NCCc2cccc(Cl)c2)o1	> 80 µM (inactive)
COc1ccccc1N1C(=O)C=C(Sc2nc(C)cc(C)n2)C1=O	> 80 µM (inactive)
COc1ccc(C(=O)c2c(C(F)(F)F)oc3c2C(=O)c2ccccc2C3=O)cc1OC	> 80 µM (inactive)
COC(=O)CCC(=O)OC1(C)C(=O)C2=CN(C3CC3)C(c3ccc(OC)cc3)=CC2=C(Br)C1=O (stereo not drawn)	> 80 µM (inactive)
CCOC(=O)C1CCCN(C(=O)Cn2sc3nc(C)cc(C)c3c2=O)C1 (stereo not drawn)	> 80 µM (inactive)
O=C1C=C(NCCc2cc(Br)c(O)c(Br)c2)C(=O)c2ncccc21	> 80 µM (inactive)
Cc1nnc(N/N=C\c2ccc(-c3cccc(C(=O)O)c3)o2)n1N	> 80 µM (inactive)
CC(NC(=O)c1sc2cc([N+](=O)[O-])ccc2c1Cl)C(C)(C)C (stereo not drawn)	> 80 µM (inactive)
CCN(CC)c1ccc(NC(=O)c2cccc(C)c2)cc1S(=O)(=O)Nc1ccccc1OC	> 80 µM (inactive)
CC(CNc1ccccc1O)C(=O)O (stereo not drawn)	> 80 µM (inactive)
Cc1c(N=C2C=C(Br)C(=O)C(Br)=C2)c(=O)n(-c2ccccc2)n1C	> 80 µM (inactive)
[O-][N+](=Cc1ccccc1)c1ccc(Cl)cc1	> 80 µM (inactive)
CCCNC(=O)Cn1sc2nc(C)cc(C)c2c1=O	> 80 µM (inactive)
COc1ccc(OC)c2c1C(=O)C(Cl)=C(Cl)C2=O	23.3 µM

SMILES	IC50
O=C(NC1=CC(=O)c2ccccc2C1=O)c1ccccc1	> 80 µM (inactive)
O=C1NC(=O)C(=Cc2ccc(-c3ccccc3[N+](=O)[O-])o2)C(=O)N1	> 80 µM (inactive)
Nc1cc(N)c(OCC(F)(F)F)cc1OCC(F)(F)F	> 80 µM (inactive)
CC(=O)Nc1ccc2sn(-c3ccccc3)c(=O)c2c1	18.2 µM
CCc1ccc(OCC(=O)N/N=C/c2cc([N+](=O)[O-])ccc2N2CCOCC2)cc1	> 80 µM (inactive)
COc1cc(NCCCn2cnc3c(OCc4ccccc4)ncnc32)cc(OC)c1OC	> 80 µM (inactive)
Cn1c(-c2sccc2OCc2cccc(C(F)(F)F)c2)n[nH]c1=S	> 80 µM (inactive)
CC1(C)Cc2c(sc3nc4n(-c5ccccc5)c(=O)c(CCC(=O)O)nn4c(=O)c23)CO1	8.84 µM
O=c1c2ccccc2sn1-c1ccc(S(=O)(=O)N2CCCC2)cc1	36.6 µM
COc1cc(NCc2ccccc2)c2ncn(Cc3ccccc3)c2c1	> 80 µM (inactive)
Cc1ccc(S(=O)(=O)Oc2cccc(/C=N/Nc3ccc(C(=O)O)cc3)c2)cc1	> 80 µM (inactive)
O=S(=O)(Nc1ccc(Cl)cc1)c1ccc(N2CCOCC2)c(NC(=S)NCCN2CCOCC2)c1	> 80 µM (inactive)
CC(C)Sc1nnc(NC(=O)c2ccc3c(c2)OCO3)s1	> 80 µM (inactive)
O=[N+]([O-])c1ccc(Sc2cccc3cccnc23)c2cccnc12	> 80 µM (inactive)
O=C1C(=Cc2cccc(O)c2O)SC(=S)N1CCCN1CCOCC1	44.3 µM
CC(C)Cn1c([N+](=O)[O-])nc2c1c(=O)[nH]c(=O)n2C	> 80 µM (inactive)
[O-]/[N+](=C\c1ccccc1)c1ccc(Br)cc1	66 µM
CN1/C(=C\C(=O)c2cccs2)Sc2ccccc21	> 80 µM (inactive)
O=C1Nc2cc(C(=O)NCCCN3CCCC3)ccc2S/C1=C/c1cccc(Cl)c1	> 80 µM (inactive)
CCN1CCN(C(=S)c2ccc(O)cc2)CC1	> 80 µM (inactive)
CCOC(=O)Nc1ccc(NCc2ccc(F)cc2)nc1N	> 80 µM (inactive)
Cc1ccc(S(=O)(=O)Nc2nc(C)c(C(=O)N/N=C/c3ccccc3)s2)cc1	> 80 µM (inactive)
CCn1c2ccccc2c2cc(/C=N/n3cn[nH]c3=S)ccc21	> 80 µM (inactive)
c1nc(SSc2ncnc3nc[nH]c23)c2[nH]cnc2n1	28.7 µM
O=C(N/N=C/c1cccc([N+](=O)[O-])c1)C(=O)N1CCCCCC1	> 80 µM (inactive)
